Holding throughout (type): in vivo
The subject of one assay is sarcopenia-induced mice. The assay is described as follows: Running ability test, sarcopenia-induced mouse. Conditions: hindlimb-immobilized mice; oral 17, 50, 150 mg/kg/day. Here is the method: Running ability was measured using a treadmill designed specific for this experiment. First, aversive stimuli were provided by letting electric stimuli flow at the starting point. Before the measurement, the mice were acclimatized at 8 m/min for 10 minutes. The running time was recorded by allowing mice in each group to run in separate lanes until exhaustion. Exhaustion was defined such that when the mouse stays outside the lanes for 10 seconds or more without running, the mouse was determined to be exhausted and the time was recorded. It was not possible to repeat this experiment on the same mouse. The mouse was placed on the treadmill and the test was started at 8 rpm, and the speed was accelerated by 2 rpm every 10 minutes to a maximum speed of 20 rpm. The slope of the lane started from a zero-degree incline and then was elevated to a five-degree incline after 30 min from the start. In order to confirm a muscle strength enhancement effect of alverine citrate, sarcopenia-induced mice were administered with alverine citrate and tested for running ability. After the treadmill running test, muscle weight was measured. In particular, the hindlimb of 10 week-old C57BL/6 male mice was immobilized using a surgical stapler (Autosuture Royal 35W stapler). […] After that, running ability was measured. […] Running ability was measured by the same method as in Example 2.2.

Assay [1] has as its system C57BL/6 male mice. As to the kind of experiment: Grip strength measurement, normal mouse. The note with it: oral, 4 weeks, 17, 50 or 150 mg/kg/day; compared with normal group. The protocol: In order to confirm the muscle strength enhancement effect of alverine citrate, after administering alverine citrate to a mouse, the mouse was tested for motor functions such as grip strength, running, balance coordination, and the like. After motor function tests, muscle weight was measured. In particular, each of 10 week-old C57BL/6 male mice was dosed orally with 200 μL of alverine citrate for 4 weeks, at a daily dose of 17 mg/kg/day (AC-L), 50 mg/kg/day (AC-M) or 150 mg/kg/day (AC-H). This group of mice was set as the experimental group (FIG. 3). The 10 week-old C57BL/6 male mice were purchased from Daehan BioLink. Grip strength was measured using a grip strength meter for mice (Bioseb, USA). In particular, the mice were placed on a metal grid connected to an instrument panel through which grip strength can be monitored, and while pulling the mice back by tail, the grip strength by which the mice grabbed the metal grid was measured. Here, 5 consecutive, repeated measurements were recorded and an average value of the 5 measurements was calculated.

In assay [2] the test system is C57BL/6 male mice. The assay is described as follows: Balance coordination test (rota-rod), normal mouse. Here is the method:
In order to confirm the muscle strength enhancement effect of alverine citrate, after administering alverine citrate to a mouse, the mouse was tested for motor functions such as grip strength, running, balance coordination, and the like. After motor function tests, muscle weight was measured. In particular, each of 10 week-old C57BL/6 male mice was dosed orally with 200 μL of alverine citrate for 4 weeks, at a daily dose of 17 mg/kg/day (AC-L), 50 mg/kg/day (AC-M) or 150 mg/kg/day (AC-H). This group of mice was set as the experimental group (FIG. 3). The 10 week-old C57BL/6 male mice were purchased from Daehan BioLink. Balance coordination was measured using a rota-rod test. The rota-rod test device consists of 4 test zones, each having a shaft diameter of 3 cm and a lane width of 9 cm, and 5 rotatable circular dividers having a diameter of 60 cm and a round rod. The test was started from a rotating speed of 10 rpm, and the speed was accelerated up to maximum 40 rpm over 5 minutes, and the duration for which the mouse remains inside the rota-rod device, clinging to the round rod without falling, was recorded. The mouse was allowed to rest for 15 minutes after each test and was subjected to three tests in total. An average value of three measurements was calculated.
In general terms: Falling from the rotarod earlier than controls is read as motor impairment.

Where a name gives a salt, the structure may show the parent alone.

Take `CCN(CCCc1ccccc1)CCCc1ccccc1` [alverine citrate]: the “running time, dependence on dose” value in the assay on sarcopenia-induced mice was “increased proportionally with the dose concentration”. The grip strength result in the assay on C57BL/6 male mice [1] was “higher than that of the mouse in the normal group”. Besides, in the assay on C57BL/6 male mice [2] (as the administration dose increased (17, 50, 150 mg/kg/day)), the “duration clinging to the round rod, dependence on dose” value is “also increased proportionally”. Also, the “duration clinging onto the round rod” value in the assay with C57BL/6 male mice [2] (oral, 4 weeks, 17, 50 or 150 mg/kg/day, compared with normal group) is recorded as “increased compared to the normal group mouse”.

For the origin of these results see US20230149326A1, “PHARMACEUTICAL COMPOSITION FOR PREVENTING OR TREATING MUSCULAR WEAKNESS-RELATED DISEASES COMPRISING ALVERINE, 4-HYDROXY ALVERINE, DERIVATIVE THEREOF, OR PHARMACEUTICALLY ACCEPTABLE SALT THEREOF” (AVENTI INC., priority 2020, published 2023).
